Legend:
[1] = bacteroides fragilis, 12 h, 2 µM
[2] = The drug is tested on Blautia luti strain: DSM14534 for biotransformation. The drug concentrations were measured before and after a 12-h incubation by liquid-chromatography-coupled mass spectrometry (LC–MS); type: ADME; design: dose 2 uM, timepoint 0 vs 12 hours; settings: 2 µM
[3] = The drug is tested on Edwardsiella tarda strain: ATCC23685 for biotransformation. The drug concentrations were measured before and after a 12-h incubation by liquid-chromatography-coupled mass spectrometry (LC–MS); settings: 2 µM
[4] = The drug is tested on Ruminococcus lactaris strain: ATCC29176 for biotransformation. The drug concentrations were measured before and after a 12-h incubation by liquid-chromatography-coupled mass spectrometry (LC–MS); settings: 2 µM
[5] = The drug is tested on Eubacterium hallii strain: DSM3353 for biotransformation. The drug concentrations were measured before and after a 12-h incubation by liquid-chromatography-coupled mass spectrometry (LC–MS); settings: anaerobutyricum hallii, 2 µM
[6] = The drug is tested on Anaerotruncus colihominis strain: DSM17241 for biotransformation. The drug concentrations were measured before and after a 12-h incubation by liquid-chromatography-coupled mass spectrometry (LC–MS); settings: 2 µM
[7] = The drug is tested on Bifidobacterium breve strain: DSM20213 for biotransformation. The drug concentrations were measured before and after a 12-h incubation by liquid-chromatography-coupled mass spectrometry (LC–MS); settings: 2 µM
[8] = segatella copri, 12 h, 2 µM
[9] = bifidobacterium adolescentis, 12 h, 2 µM
[10] = limosilactobacillus reuteri cf48-3a, 12 h, 2 µM
[11] = The drug is tested on Bacteroides caccae strain: ATCC43185 for biotransformation. The drug concentrations were measured before and after a 12-h incubation by liquid-chromatography-coupled mass spectrometry (LC–MS); settings: 2 µM
[12] = parabacteroides distasonis, 12 h, 2 µM
[13] = The drug is tested on Anaerococcus hydrogenalis strain: DSM7454 for biotransformation. The drug concentrations were measured before and after a 12-h incubation by liquid-chromatography-coupled mass spectrometry (LC–MS); settings: 2 µM
[14] = bacteroides thetaiotaomicron, 12 h, 2 µM
[15] = The drug is tested on Enterococcus faecalis strain: V583 for biotransformation. The drug concentrations were measured before and after a 12-h incubation by liquid-chromatography-coupled mass spectrometry (LC–MS); settings: 2 µM
[16] = The drug is tested on Bacteroides finegoldii strain: DSM17565 for biotransformation. The drug concentrations were measured before and after a 12-h incubation by liquid-chromatography-coupled mass spectrometry (LC–MS); settings: 2 µM
[17] = The drug is tested on Clostridium scindens strain: ATCC35704 for biotransformation. The drug concentrations were measured before and after a 12-h incubation by liquid-chromatography-coupled mass spectrometry (LC–MS); settings: 2 µM
[18] = The drug is tested on Bifidobacterium ruminantium strain: fecal isolate for biotransformation. The drug concentrations were measured before and after a 12-h incubation by liquid-chromatography-coupled mass spectrometry (LC–MS); settings: 2 µM
[19] = The drug is tested on Coprococcus comes strain: ATCC27758 for biotransformation. The drug concentrations were measured before and after a 12-h incubation by liquid-chromatography-coupled mass spectrometry (LC–MS); type: ADME; design: dose 2 uM, timepoint 0 vs 12 hours; settings: 2 µM
[20] = roseburia intestinalis, 12 h, 2 µM
Description: The drug is tested on Roseburia intestinalis strain: L1-82 for biotransformation. The drug concentrations were measured before and after a 12-h incubation by liquid-chromatography-coupled mass spectrometry (LC–MS)

SMILES	Bacterial Biotransformation [1]	Bacterial Biotransformation [2]	Bacterial Biotransformation [3]	Bacterial Biotransformation [4]	Bacterial Biotransformation [5]	Bacterial Biotransformation [6]	Bacterial Biotransformation [7]	Bacterial Biotransformation [8]	Bacterial Biotransformation [9]	Bacterial Biotransformation [10]	Bacterial Biotransformation [11]	Bacterial Biotransformation [12]	Bacterial Biotransformation [13]	Bacterial Biotransformation [14]	Bacterial Biotransformation [15]	Bacterial Biotransformation [16]	Bacterial Biotransformation [17]	Bacterial Biotransformation [18]	Bacterial Biotransformation [19]	Bacterial Biotransformation [20]
CN[C@H]1CC[C@@H](c2ccc(Cl)c(Cl)c2)c2ccccc21 [SERTRALINE]	Compound NOT metabolized	Compound NOT metabolized	Compound NOT metabolized	Compound NOT metabolized	Compound NOT metabolized	Compound NOT metabolized	Compound NOT metabolized	Compound NOT metabolized	Compound NOT metabolized	Compound NOT metabolized	Compound NOT metabolized	Compound NOT metabolized	Compound NOT metabolized	Compound NOT metabolized	Compound NOT metabolized	Compound NOT metabolized	Compound NOT metabolized	Compound NOT metabolized	–	–
COc1ccc(CCN(C)CCCC(C#N)(c2ccc(OC)c(OC)c2)C(C)C)cc1OC (configuration not stated)	Compound NOT metabolized	Compound NOT metabolized	Compound NOT metabolized	Compound NOT metabolized	Compound metabolized	Compound NOT metabolized	Compound NOT metabolized	Compound metabolized	Compound NOT metabolized	Compound NOT metabolized	Compound NOT metabolized	Compound metabolized	Compound NOT metabolized	Compound metabolized	Compound NOT metabolized	Compound NOT metabolized	–	Compound NOT metabolized	Compound NOT metabolized	–
O=C([O-])C[C@H](O)C[C@H](O)/C=C/c1c(C2CC2)nc2ccccc2c1-c1ccc(F)cc1.O=C([O-])C[C@H](O)C[C@H](O)/C=C/c1c(C2CC2)nc2ccccc2c1-c1ccc(F)cc1.[Ca+2] [PITAVASTATIN CALCIUM]	Compound NOT metabolized	Compound NOT metabolized	Compound NOT metabolized	Compound NOT metabolized	Compound NOT metabolized	Compound NOT metabolized	Compound NOT metabolized	Compound NOT metabolized	Compound NOT metabolized	Compound NOT metabolized	Compound NOT metabolized	Compound NOT metabolized	Compound NOT metabolized	Compound NOT metabolized	–	–	Compound NOT metabolized	Compound NOT metabolized	Compound NOT metabolized	–
CCC(COC(=O)c1cc(OC)c(OC)c(OC)c1)(c1ccccc1)N(C)C.O=C(O)/C=C\C(=O)O (configuration not stated)	Compound metabolized	Compound metabolized	Compound metabolized	Compound metabolized	Compound metabolized	Compound metabolized	–	Compound metabolized	Compound metabolized	Compound metabolized	Compound NOT metabolized	Compound metabolized	Compound metabolized	Compound metabolized	Compound metabolized	Compound metabolized	Compound metabolized	Compound metabolized	Compound metabolized	Compound metabolized
Cc1ccc(S(=O)(=O)NC(=O)NN2CCCCCC2)cc1 [TOLAZAMIDE]	Compound metabolized	Compound NOT metabolized	Compound NOT metabolized	Compound NOT metabolized	Compound metabolized	Compound NOT metabolized	Compound NOT metabolized	Compound metabolized	Compound NOT metabolized	–	–	Compound metabolized	Compound NOT metabolized	Compound metabolized	Compound NOT metabolized	–	Compound NOT metabolized	Compound metabolized	Compound NOT metabolized	Compound NOT metabolized
CCCCCCOC(=O)/N=C(/N)c1ccc(NCc2nc3cc(C(=O)N(CCC(=O)OCC)c4ccccn4)ccc3n2C)cc1.CS(=O)(=O)O [DABIGATRAN ETEXILATE MESYLATE]	Compound NOT metabolized	Compound NOT metabolized	Compound NOT metabolized	Compound NOT metabolized	Compound NOT metabolized	Compound NOT metabolized	–	Compound NOT metabolized	Compound NOT metabolized	Compound NOT metabolized	Compound NOT metabolized	Compound NOT metabolized	Compound NOT metabolized	Compound NOT metabolized	Compound NOT metabolized	Compound NOT metabolized	Compound NOT metabolized	Compound NOT metabolized	Compound NOT metabolized	Compound NOT metabolized
Br.CN1CCC[C@@H]1Cc1c[nH]c2ccc(CCS(=O)(=O)c3ccccc3)cc12 [ELETRIPTAN HYDROBROMIDE]	Compound NOT metabolized	Compound NOT metabolized	Compound NOT metabolized	Compound NOT metabolized	Compound NOT metabolized	Compound NOT metabolized	–	Compound NOT metabolized	Compound NOT metabolized	Compound NOT metabolized	Compound NOT metabolized	Compound NOT metabolized	Compound NOT metabolized	Compound NOT metabolized	Compound NOT metabolized	Compound NOT metabolized	Compound NOT metabolized	Compound NOT metabolized	Compound NOT metabolized	Compound NOT metabolized
